Source: the NIST ThermoML archive (doi:10.1021/je0342825)
Numbers after ± are expanded uncertainties.

How the values were obtained:
[1] = 101.3 kPa, Liquid
[2] = xn = mol fraction of the nth substance listed; conditions: 101.3 kPa, Liquid

With `COC(C)=O` [methyl ethanoate] the mass density ([1]; 293.15 K) was 933.56 ± 0.53 kg/m3, the speed of sound ([1]; 293.15 K) was 1174 ± 2 m/s and the viscosity ([1]; 293.15 K) was 0.386 ± 0.006 mPa·s. The mass density ([1]; 298.15 K) was 926.98 ± 0.53 kg/m3, the speed of sound ([1]; 298.15 K) was 1151 ± 2 m/s and the viscosity ([1]; 298.15 K) was 0.367 ± 0.006 mPa·s. The mass density ([1]; 303.15 K) was 920.34 ± 0.53 kg/m3, the speed of sound ([1]; 303.15 K) was 1128 ± 2 m/s and the viscosity ([1]; 303.15 K) was 0.348 ± 0.006 mPa·s.
`CC(=O)O` [acetic acid] + O showed a mass density ([2]; 293.15 K, x1 = 0.0503) of 1019.37 ± 0.17 kg/m3, a speed of sound ([2]; 293.15 K, x1 = 0.0503) of 1528 ± 2 m/s and a viscosity ([2]; 293.15 K, x1 = 0.0503) of 1.304 ± 0.017 mPa·s. For the same compound, the mass density ([2]; 293.15 K, x1 = 0.1009) was 1034.95 ± 0.21 kg/m3, the speed of sound ([2]; 293.15 K, x1 = 0.1009) was 1537 ± 2 m/s and the viscosity ([2]; 293.15 K, x1 = 0.1009) was 1.578 ± 0.02 mPa·s. The mass density ([2]; 293.15 K, x1 = 0.2018) was 1053.88 ± 0.26 kg/m3, the speed of sound ([2]; 293.15 K, x1 = 0.2018) was 1509 ± 2 m/s and the viscosity ([2]; 293.15 K, x1 = 0.2018) was 2.031 ± 0.025 mPa·s. For the same compound, the mass density ([2]; 293.15 K, x1 = 0.3006) was 1063.42 ± 0.3 kg/m3, the speed of sound ([2]; 293.15 K, x1 = 0.3006) was 1465 ± 2 m/s and the viscosity ([2]; 293.15 K, x1 = 0.3006) was 2.355 ± 0.029 mPa·s. It also gave a mass density ([2]; 293.15 K, x1 = 0.4015) of 1068.15 ± 0.34 kg/m3, a speed of sound ([2]; 293.15 K, x1 = 0.4015) of 1418 ± 2 m/s and a viscosity ([2]; 293.15 K, x1 = 0.4015) of 2.559 ± 0.032 mPa·s. It also gave a mass density ([2]; 293.15 K, x1 = 0.5012) of 1069.68 ± 0.38 kg/m3, a speed of sound ([2]; 293.15 K, x1 = 0.5012) of 1373 ± 2 m/s and a viscosity ([2]; 293.15 K, x1 = 0.5012) of 2.652 ± 0.033 mPa·s. The mass density ([2]; 293.15 K, x1 = 0.6005) was 1068.8 ± 0.42 kg/m3, the speed of sound ([2]; 293.15 K, x1 = 0.6005) was 1329 ± 2 m/s and the viscosity ([2]; 293.15 K, x1 = 0.6005) was 2.627 ± 0.033 mPa·s. For the same compound, the mass density ([2]; 293.15 K, x1 = 0.7004) was 1066.55 ± 0.46 kg/m3, the speed of sound ([2]; 293.15 K, x1 = 0.7004) was 1286 ± 2 m/s and the viscosity ([2]; 293.15 K, x1 = 0.7004) was 2.417 ± 0.03 mPa·s. The mass density ([2]; 293.15 K, x1 = 0.8017) was 1062.78 ± 0.49 kg/m3, the speed of sound ([2]; 293.15 K, x1 = 0.8017) was 1243 ± 2 m/s and the viscosity ([2]; 293.15 K, x1 = 0.8017) was 2.077 ± 0.027 mPa·s. It also gave a mass density ([2]; 293.15 K, x1 = 0.8996) of 1057.35 ± 0.53 kg/m3, a speed of sound ([2]; 293.15 K, x1 = 0.8996) of 1199 ± 2 m/s and a viscosity ([2]; 293.15 K, x1 = 0.8996) of 1.666 ± 0.022 mPa·s. For the same compound, the mass density ([2]; 293.15 K, x1 = 0.9523) was 1053.56 ± 0.55 kg/m3, the speed of sound ([2]; 293.15 K, x1 = 0.9523) was 1175 ± 2 m/s and the viscosity ([2]; 293.15 K, x1 = 0.9523) was 1.416 ± 0.019 mPa·s. For the same compound, the mass density ([2]; 293.15 K, x1 = 1) was 1049.3 ± 0.57 kg/m3, the speed of sound ([2]; 293.15 K, x1 = 1) was 1149 ± 2 m/s and the viscosity ([2]; 293.15 K, x1 = 1) was 1.211 ± 0.016 mPa·s. For the same compound, the mass density ([2]; 298.15 K, x1 = 0.0503) was 1017.24 ± 0.17 kg/m3, the speed of sound ([2]; 298.15 K, x1 = 0.0503) was 1533 ± 2 m/s and the viscosity ([2]; 298.15 K, x1 = 0.0503) was 1.151 ± 0.015 mPa·s. For the same compound, the mass density ([2]; 298.15 K, x1 = 0.1009) was 1032.04 ± 0.2 kg/m3, the speed of sound ([2]; 298.15 K, x1 = 0.1009) was 1536 ± 2 m/s and the viscosity ([2]; 298.15 K, x1 = 0.1009) was 1.385 ± 0.018 mPa·s. The mass density ([2]; 298.15 K, x1 = 0.2018) was 1050 ± 0.25 kg/m3, the speed of sound ([2]; 298.15 K, x1 = 0.2018) was 1502 ± 2 m/s and the viscosity ([2]; 298.15 K, x1 = 0.2018) was 1.777 ± 0.023 mPa·s. It also gave a mass density ([2]; 298.15 K, x1 = 0.3006) of 1058.83 ± 0.3 kg/m3, a speed of sound ([2]; 298.15 K, x1 = 0.3006) of 1454 ± 2 m/s and a viscosity ([2]; 298.15 K, x1 = 0.3006) of 2.053 ± 0.026 mPa·s. For the same compound, the mass density ([2]; 298.15 K, x1 = 0.4015) was 1063.42 ± 0.34 kg/m3, the speed of sound ([2]; 298.15 K, x1 = 0.4015) was 1405 ± 2 m/s and the viscosity ([2]; 298.15 K, x1 = 0.4015) was 2.232 ± 0.029 mPa·s. The mass density ([2]; 298.15 K, x1 = 0.5012) was 1064.77 ± 0.37 kg/m3, the speed of sound ([2]; 298.15 K, x1 = 0.5012) was 1359 ± 2 m/s and the viscosity ([2]; 298.15 K, x1 = 0.5012) was 2.316 ± 0.03 mPa·s. It also gave a mass density ([2]; 298.15 K, x1 = 0.6005) of 1063.48 ± 0.41 kg/m3, a speed of sound ([2]; 298.15 K, x1 = 0.6005) of 1314 ± 2 m/s and a viscosity ([2]; 298.15 K, x1 = 0.6005) of 2.3 ± 0.03 mPa·s. The mass density ([2]; 298.15 K, x1 = 0.7004) was 1061.22 ± 0.45 kg/m3, the speed of sound ([2]; 298.15 K, x1 = 0.7004) was 1270 ± 2 m/s and the viscosity ([2]; 298.15 K, x1 = 0.7004) was 2.129 ± 0.028 mPa·s. For the same compound, the mass density ([2]; 298.15 K, x1 = 0.8017) was 1057.34 ± 0.49 kg/m3, the speed of sound ([2]; 298.15 K, x1 = 0.8017) was 1226 ± 2 m/s and the viscosity ([2]; 298.15 K, x1 = 0.8017) was 1.85 ± 0.024 mPa·s. It also gave a mass density ([2]; 298.15 K, x1 = 0.8996) of 1051.8 ± 0.53 kg/m3, a speed of sound ([2]; 298.15 K, x1 = 0.8996) of 1183 ± 2 m/s and a viscosity ([2]; 298.15 K, x1 = 0.8996) of 1.503 ± 0.02 mPa·s. It also gave a mass density ([2]; 298.15 K, x1 = 0.9523) of 1047.96 ± 0.55 kg/m3, a speed of sound ([2]; 298.15 K, x1 = 0.9523) of 1157 ± 2 m/s and a viscosity ([2]; 298.15 K, x1 = 0.9523) of 1.294 ± 0.017 mPa·s. It also gave a mass density ([2]; 298.15 K, x1 = 1) of 1043.65 ± 0.56 kg/m3, a speed of sound ([2]; 298.15 K, x1 = 1) of 1132 ± 2 m/s and a viscosity ([2]; 298.15 K, x1 = 1) of 1.115 ± 0.015 mPa·s. For the same compound, the mass density ([2]; 303.15 K, x1 = 0.0503) was 1014.94 ± 0.17 kg/m3, the speed of sound ([2]; 303.15 K, x1 = 0.0503) was 1537 ± 2 m/s and the viscosity ([2]; 303.15 K, x1 = 0.0503) was 1.023 ± 0.014 mPa·s. The mass density ([2]; 303.15 K, x1 = 0.1009) was 1029.02 ± 0.2 kg/m3, the speed of sound ([2]; 303.15 K, x1 = 0.1009) was 1535 ± 2 m/s and the viscosity ([2]; 303.15 K, x1 = 0.1009) was 1.226 ± 0.016 mPa·s. For the same compound, the mass density ([2]; 303.15 K, x1 = 0.2018) was 1046.07 ± 0.25 kg/m3, the speed of sound ([2]; 303.15 K, x1 = 0.2018) was 1494 ± 2 m/s and the viscosity ([2]; 303.15 K, x1 = 0.2018) was 1.571 ± 0.021 mPa·s. For the same compound, the mass density ([2]; 303.15 K, x1 = 0.3006) was 1054.2 ± 0.29 kg/m3, the speed of sound ([2]; 303.15 K, x1 = 0.3006) was 1443 ± 2 m/s and the viscosity ([2]; 303.15 K, x1 = 0.3006) was 1.809 ± 0.024 mPa·s. For the same compound, the mass density ([2]; 303.15 K, x1 = 0.4015) was 1058.66 ± 0.33 kg/m3, the speed of sound ([2]; 303.15 K, x1 = 0.4015) was 1392 ± 2 m/s and the viscosity ([2]; 303.15 K, x1 = 0.4015) was 1.965 ± 0.026 mPa·s. It also gave a mass density ([2]; 303.15 K, x1 = 0.5012) of 1059.78 ± 0.37 kg/m3, a speed of sound ([2]; 303.15 K, x1 = 0.5012) of 1344 ± 2 m/s and a viscosity ([2]; 303.15 K, x1 = 0.5012) of 2.046 ± 0.027 mPa·s. It also gave a mass density ([2]; 303.15 K, x1 = 0.6005) of 1058.24 ± 0.41 kg/m3, a speed of sound ([2]; 303.15 K, x1 = 0.6005) of 1299 ± 2 m/s and a viscosity ([2]; 303.15 K, x1 = 0.6005) of 2.029 ± 0.027 mPa·s. For the same compound, the mass density ([2]; 303.15 K, x1 = 0.7004) was 1055.91 ± 0.45 kg/m3, the speed of sound ([2]; 303.15 K, x1 = 0.7004) was 1254 ± 2 m/s and the viscosity ([2]; 303.15 K, x1 = 0.7004) was 1.89 ± 0.025 mPa·s. It also gave a mass density ([2]; 303.15 K, x1 = 0.8017) of 1051.9 ± 0.48 kg/m3, a speed of sound ([2]; 303.15 K, x1 = 0.8017) of 1210 ± 2 m/s and a viscosity ([2]; 303.15 K, x1 = 0.8017) of 1.656 ± 0.022 mPa·s. It also gave a mass density ([2]; 303.15 K, x1 = 0.8996) of 1046.25 ± 0.52 kg/m3, a speed of sound ([2]; 303.15 K, x1 = 0.8996) of 1166 ± 2 m/s and a viscosity ([2]; 303.15 K, x1 = 0.8996) of 1.367 ± 0.018 mPa·s. For the same compound, the mass density ([2]; 303.15 K, x1 = 0.9523) was 1042.35 ± 0.54 kg/m3, the speed of sound ([2]; 303.15 K, x1 = 0.9523) was 1140 ± 2 m/s and the viscosity ([2]; 303.15 K, x1 = 0.9523) was 1.19 ± 0.016 mPa·s. For the same compound, the mass density ([2]; 303.15 K, x1 = 1) was 1038 ± 0.56 kg/m3, the speed of sound ([2]; 303.15 K, x1 = 1) was 1115 ± 2 m/s and the viscosity ([2]; 303.15 K, x1 = 1) was 1.034 ± 0.014 mPa·s.
